Test [1] concerns SGLT1. Kind of test: Na-glucose co-transport (SGLT1) uptake in villus cell BBMV of L-NAME-treated obese rats. The format is in vivo, rat. Particulars: obese rats (OZR) treated for at least one week with L-NAME; FIG. 21. The text has this:
Animal models and treatment. Zucker rats (Strain code: 185 (Obese), 186 (Lean); 18 wks) obtained from Charles River Laboratories International, Inc. were used as a genetic model of obesity, and C57BL/6 mice (B6) (The Jackson Laboratory) and Sprague Dawley rats (Strain code: 400; Charles River Laboratories International, Inc.) were used as a diet-induced model of obesity. B6 mice were fed with either a low-fat diet (LFD) (10% calories from fat; Cat. No: 58124, LabDiet, USA) or high-fat diet (HFD) (60% calories from fat; Cat. No: 58126, LabDiet, USA) starting at 4 weeks of age until they reached 20 weeks of age. Sprague Dawley rats were fed the above-mentioned diets from the age of 12 weeks for 6 weeks to induce obesity. […] Studies determined that 10 mg dose of L-NAME was the lowest dose to consistently affect transporter activities and was therefore used in all subsequent experiments. […]
Uptake studies in intact villus cells and BBMVs. […] Filters with intact villus cells were dissolved in 5 ml scintillation fluid (Ecoscint, National Diagnostics), and radioactivity was determined in a Beckman 6500 Beta Scintillation Counter. […] The uptake experiment results were expressed as Na-glucose co-transport uptake in nanomoles per milligram protein at 60 sec for mice or 90 sec for rats. […]

Test [2] relates to Cl:HCO3 exchange (DRA/PAT1). Kind of test: Cl/HCO3 exchange uptake in BBMV of L-NAME-treated obese rats. The format is in vivo, rat. Particulars: obese rats (OZR) treated for at least one week with L-NAME; FIG. 22. The text has this:
(§1) Animal models and treatment. Zucker rats (Strain code: 185 (Obese), 186 (Lean); 18 wks) obtained from Charles River Laboratories International, Inc. were used as a genetic model of obesity, and C57BL/6 mice (B6) (The Jackson Laboratory) and Sprague Dawley rats (Strain code: 400; Charles River Laboratories International, Inc.) were used as a diet-induced model of obesity. B6 mice were fed with either a low-fat diet (LFD) (10% calories from fat; Cat. No: 58124, LabDiet, USA) or high-fat diet (HFD) (60% calories from fat; Cat. No: 58126, LabDiet, USA) starting at 4 weeks of age until they reached 20 weeks of age. Sprague Dawley rats were fed the above-mentioned diets from the age of 12 weeks for 6 weeks to induce obesity. To inhibit constitutive nitric oxide production in both mice and rats, the animals were first treated with either a 10 or 25 mg/kg per day dosage of used N^G-nitro-L-arginine methyl ester (L-NAME). Studies determined that 10 mg dose of L-NAME was the lowest dose to consistently affect transporter activities and was therefore used in all subsequent experiments. […] Cl/HCO3 exchange uptake was measured in BBMV by rapid filtration technique as previously described. […] Results were calculated as the HCO3 dependent DIDS sensitive Cl uptake.

Test [3] concerns NHE3. Kind of test: Na/H exchange (NHE3) uptake in BBMV of L-NAME-treated obese rats. The format is in vivo, rat. As to conditions: obese rats treated with L-NAME; FIG. 23.
From the text: as §1, with “Na/H” for “Cl/HCO3”, “The results” for “Results”, “expressed” for “calculated”, “Na/H exchange in picomoles per milligram protein at 60 sec.” for “the HCO3 dependent DIDS sensitive Cl uptake.”

In test [4] the test system is transporter activities. The test is described as follows: L-NAME dose finding on intestinal transporter activities. As to conditions: 10 or 25 mg/kg per day tested in mice and rats. The format is in vivo. The text has this:
Animal models and treatment. Zucker rats (Strain code: 185 (Obese), 186 (Lean); 18 wks) obtained from Charles River Laboratories International, Inc. were used as a genetic model of obesity, and C57BL/6 mice (B6) (The Jackson Laboratory) and Sprague Dawley rats (Strain code: 400; Charles River Laboratories International, Inc.) were used as a diet-induced model of obesity. B6 mice were fed with either a low-fat diet (LFD) (10% calories from fat; Cat. No: 58124, LabDiet, USA) or high-fat diet (HFD) (60% calories from fat; Cat. No: 58126, LabDiet, USA) starting at 4 weeks of age until they reached 20 weeks of age. Sprague Dawley rats were fed the above-mentioned diets from the age of 12 weeks for 6 weeks to induce obesity. To inhibit constitutive nitric oxide production in both mice and rats, the animals were first treated with either a 10 or 25 mg/kg per day dosage of used N^G-nitro-L-arginine methyl ester (L-NAME). Studies determined that 10 mg dose of L-NAME was the lowest dose to consistently affect transporter activities and was therefore used in all subsequent experiments. For the diet-induced mice obesity model, LFD and HFD fed B6 mice were treated with this dose from the age of 20 weeks, and Sprague Dawley rats were treated from the age of 17 wks for 1 week. All the experimental animals were handled and euthanized according to Marshall University IACUC regulations.

“Also recorded” adds a separate entry of the source.

`COC(=O)[C@@H](N)CCCNC(=N)N[N+](=O)[O-]` [L-NAME, N^G-nitro-L-arginine methyl ester]: the “effect on the stimulation of SGLT1 (glucose absorption) in obese rats” value in test [1] was “reversed the stimulation of SGLT1”. Also, the “effect on the stimulation of Cl:HCO3 (NaCl absorption) in obese rats” value in test [2] is listed as “reversed the stimulation of Cl:HCO3”. In addition, the “effect on NHE3 activity in obese rats” value in test [3] is recorded as “did not affect NHE3; also recorded: does not affect NHE3 activity”. In addition, the “lowest dose to consistently affect transporter activities” value in test [4] came to 10 mg.

For the origin of these results see patent US11903911B1, “Method of treating obesity by reversal of Na/K-Atpase inhibition” (Marshall University Research Corporation, priority 2019, dated 2024).
